Publication PMC9127493 (Signal Transduction and Targeted Therapy, 2022)
Read-outs that look alike come from different tables or passages of the source.

Tests used:
[1] = Cytotoxicity of drugs used in pseudovirus experiments (MTS); assay type: cell-based; conditions: human; 293T-hACE2 cells, MTS assay at 48 hours, n = 3
Procedure: (§1) Cells were seeded into 96-well plates and exposed to serially diluted drugs for 48 h. Cell viability was determined using MTS (Promega, Madison, WI, USA), according to the manufacturer’ s instructions. The absorbance was measured in Varioskan Flash (Thermo) at 490 nm. Data were normalized to the control group (DMSO). CC50 values were calculated by concentration-response curve-fitting using GraphPad Prism.
293T-hACE2 cells were treated with serially diluted drugs and cytotoxicity was determined by MTS assay at 48 hours (n = 3).

Vero E6 cells = assay: Morphological observations, cytoplasmic vacuolization; assay type: cell-based, African green monkey; conditions: for induction of cytoplasmic vacuoles: Vero E6 cells, 5 μM, 8 h
Procedure: Morphological observations
Cells were seeded into 96-well plates and treated with test drugs for indicated time periods. Pictures of cells were subsequently obtained using Biotek Cytation-5&BioSpa8.

293T-ACE2iRb3 cells = assay: Visualization of SARS-CoV-2 cell entry with STG probe; assay type: cell-based, human; conditions: pretreated with 2 μM for 1 h, 3 h post STG incubation
Procedure: Visulization of SARS-CoV-2 cell entry
To visualize the effect of drugs on viral entry, 293T-ACE2iRb3 cells were pretreated with serially diluted drugs for 1 h before STG probes addition for further incubation. Cell images shown in Fig 1e were acquired using a 100× oil immersion objective. The data shown in Fig S3 was derived from images acquired on Opera Phenix using 40× water immersion objective. For images of Fig 1e, cells were gently washed twice with PBS after 3 h incubation with STG, following a paraformaldehyde fixation before imaging. Cell images involved in Fig S3 were obtained under wash-free and live-cell conditions. The construction of STG probe used here and the image quantitative analysis were performed as previously described^1.
All drugs were tested in a 3-fold dilution series and the initial drug concentration was 15 μM. Three and five replicate wells were performed for the DMSO and drug groups, respectively. 25 fields of each well were imaged for quantitative analyses after 3 h incubation with STG-probe.

[2] = test system: SARS-CoV-2 wild-type isolate XM088T; assay: Antiviral efficacy assay, qRT-PCR of virus released in supernatants; assay type: cell-based; conditions: MOI of 0.05, pretreated 2 h, qRT-PCR at 48 h p.i., n = 3
PIKfyve = biological target: T1, PIKfyve (Homo sapiens, UniProt Q9Y2I7); assay: KINOMEscan competitive binding assay, Kds determination
T1 construct: purchased Eurofins DiscoverX Corporation (KINOMEscan service); host or cells: HEK-293
T1 sequence (Q9Y2I7 whole entry): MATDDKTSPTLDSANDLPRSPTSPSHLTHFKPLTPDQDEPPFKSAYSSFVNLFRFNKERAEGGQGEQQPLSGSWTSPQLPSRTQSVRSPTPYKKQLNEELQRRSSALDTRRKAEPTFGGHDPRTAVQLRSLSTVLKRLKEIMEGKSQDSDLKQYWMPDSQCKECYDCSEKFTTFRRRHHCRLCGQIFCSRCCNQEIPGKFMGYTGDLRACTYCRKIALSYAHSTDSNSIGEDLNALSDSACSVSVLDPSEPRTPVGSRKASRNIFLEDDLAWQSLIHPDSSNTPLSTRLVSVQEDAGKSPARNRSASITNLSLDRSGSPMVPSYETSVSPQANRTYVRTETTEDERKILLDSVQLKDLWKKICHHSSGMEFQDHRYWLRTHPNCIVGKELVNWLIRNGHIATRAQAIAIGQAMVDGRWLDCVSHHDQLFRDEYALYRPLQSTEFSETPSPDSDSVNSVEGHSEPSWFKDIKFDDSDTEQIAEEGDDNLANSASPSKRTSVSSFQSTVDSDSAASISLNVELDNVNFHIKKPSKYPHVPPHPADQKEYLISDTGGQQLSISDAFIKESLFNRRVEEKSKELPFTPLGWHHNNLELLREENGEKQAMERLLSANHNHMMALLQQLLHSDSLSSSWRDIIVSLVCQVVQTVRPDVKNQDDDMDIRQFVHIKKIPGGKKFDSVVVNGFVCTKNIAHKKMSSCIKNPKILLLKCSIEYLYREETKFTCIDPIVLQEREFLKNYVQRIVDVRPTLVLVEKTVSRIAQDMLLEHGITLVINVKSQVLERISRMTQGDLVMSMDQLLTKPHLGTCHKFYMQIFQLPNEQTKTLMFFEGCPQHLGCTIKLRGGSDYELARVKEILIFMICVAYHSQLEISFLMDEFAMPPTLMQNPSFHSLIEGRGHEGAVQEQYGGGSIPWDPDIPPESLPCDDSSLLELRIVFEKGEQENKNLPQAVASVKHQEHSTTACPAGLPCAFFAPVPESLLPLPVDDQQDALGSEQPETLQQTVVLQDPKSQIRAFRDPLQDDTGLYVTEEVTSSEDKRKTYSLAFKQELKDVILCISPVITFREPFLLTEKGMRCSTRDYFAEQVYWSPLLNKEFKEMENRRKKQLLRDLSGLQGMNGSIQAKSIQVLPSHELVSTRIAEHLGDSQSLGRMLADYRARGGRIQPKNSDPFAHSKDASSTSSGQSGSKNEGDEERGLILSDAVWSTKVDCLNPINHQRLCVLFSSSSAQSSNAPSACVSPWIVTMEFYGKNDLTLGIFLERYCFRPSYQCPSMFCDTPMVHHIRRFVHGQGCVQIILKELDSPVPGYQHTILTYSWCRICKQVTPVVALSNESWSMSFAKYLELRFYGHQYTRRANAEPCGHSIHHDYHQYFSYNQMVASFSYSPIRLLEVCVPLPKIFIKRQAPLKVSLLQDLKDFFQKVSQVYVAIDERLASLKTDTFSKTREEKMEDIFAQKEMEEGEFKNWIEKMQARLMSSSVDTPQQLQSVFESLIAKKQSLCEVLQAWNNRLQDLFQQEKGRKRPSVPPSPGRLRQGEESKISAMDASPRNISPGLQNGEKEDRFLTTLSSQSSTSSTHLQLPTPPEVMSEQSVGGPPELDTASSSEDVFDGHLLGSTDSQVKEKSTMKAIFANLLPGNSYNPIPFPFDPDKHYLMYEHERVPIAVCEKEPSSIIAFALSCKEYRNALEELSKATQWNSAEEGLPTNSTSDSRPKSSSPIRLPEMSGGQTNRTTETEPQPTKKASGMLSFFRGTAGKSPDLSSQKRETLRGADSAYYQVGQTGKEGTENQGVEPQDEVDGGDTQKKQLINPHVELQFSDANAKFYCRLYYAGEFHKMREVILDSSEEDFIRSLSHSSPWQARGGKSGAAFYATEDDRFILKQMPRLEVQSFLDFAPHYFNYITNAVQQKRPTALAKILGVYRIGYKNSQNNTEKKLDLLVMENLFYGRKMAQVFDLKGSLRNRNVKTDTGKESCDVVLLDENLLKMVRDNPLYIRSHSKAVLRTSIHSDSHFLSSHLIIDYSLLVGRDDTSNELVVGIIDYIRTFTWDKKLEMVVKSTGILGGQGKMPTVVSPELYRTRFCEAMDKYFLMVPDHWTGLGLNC
Source text: KINOMEscan technology is a competitive affinity-based binding assay provided by Eurofins DiscoverX Corporation^3. Briefly, kinases were produced in HEK-293 cells and tagged with DNA for qPCR detection. Affinity resins were generated by treating streptavidin-coated magnetic beads with biotinylated small molecule ligands. For binding assays, the liganded beads were combined with DNA-tagged kinases and the test compounds. DMSO was used as a control. Compounds that bind to the DNA-tagged kinases will prevent these kinases binding with immobilized ligands and reduce the amount of the corresponding kinases captured on solid support. Kds were determined using 11 serial threefold dilutions of the test compounds and a DMSO control.
Supplementary Figure S1. The equilibrium dissociation constant (Kd) for XMU-MP-7 with PIKfyve was determined from 2 independent titration curves.

[3] = Antiproliferation (MTS) assay, cytotoxicity; assay type: cell-based; conditions: African green monkey, Vero E6 cells
Procedure: as §1, with “Cell” for “Cells were seeded into 96-well plates and exposed to serially diluted drugs for 48 h. Cell”

SARS-CoV-2 [4] = assay: Cytopathic effect (CPE) inhibition assay in Vero E6 cells; assay type: cell-based; conditions: wild-type SARS-CoV-2, MOI = 0.1, 48 h
[5] = design: method as in PMID 31628917; conditions: patients with Crohn’s disease and rheumatoid arthritis; cited from earlier work
cathepsin B = assay: Cathepsin B activation, Western blot; assay type: cell-based, human; conditions: A549 cells, time- and dose-dependent
[6] = Pharmacokinetics after single intravenous and oral administration; assay type: in vivo; conditions: Sprague Dawley, plasma, rat; for MRT inf: read-out: MRT(0-∞)
Procedure: The pharmacokinetics of XMU-MP-7 were determined following single intravenous and oral administration in Sprague Dawley rat (N = 3/each) at the dose indicated. Blood samples were collected at 0.08, 0.25, 0.5, 1, 2, 4, 8 & 24 hr (IV) & 0.25, 0.5, 1, 2, 4, 6, 8 & 24 hr (PO) post dose. Then the samples were quantified by LC-MS/MS, and data analysis was conducted using WinNonlin V6.3. IV = intravenous injection, PO = oral delivery, Tmax = time of maximum plasma concentration, Cmax = maximum plasma concentration, AUC = area under the curve (measure of exposure), T1/2 = half life, Cl = plasma clearance, Vd = volume of distribution, F = oral bioavailability.

SARS-CoV-2 [7] = assay: Time-of-addition experiment; assay type: cell-based; conditions: Vero E6 cells, qRT-PCR at 24 h p.i. and nucleoprotein Western blot
Procedure: Time-of-addition experiment
Vero E6 cells were plated into 6-well plates and grew overnight. During “Full-time” treatment, cells were first treated with drug for two hours, and then infected with the virus for two hours. After that, the mixed supernatant was removed and cells were washed twice with PBS and finally cultured in fresh medium containing the same concentration of drug. For “Entry” treatment, pre-treatment and infection operations were similar to that in “Full-time” treatment. However, cells were cultured in drug-free medium after the mixed supernatant removed. As for “Post-entry” treatment, cells were infected with virus for 2 h before treated with drug for 2 h. Then the mixture was removed and fresh medium containing drug was added after cells were washed with PBS. The DMSO-control group was treated in the same way as “Full-time” group. For quantitative PCR, the MOI was controlled at 0.05 and supernatant was harvest at 24 h post infection. While for western blot, MOI was controlled at 0.30 and cells were harvest at 72 h post infection to identify the virus protein expression.

[8] = Severe acute respiratory syndrome coronavirus 2, Vero C1008, Vero E6 cells

SMILES	CC50 at 48 h [1] [µM]	induction of cytoplasmic vacuoles (Vero E6 cells)	STG probe internalization (confocal images) (293T-ACE2iRb3 cells)	EC50 [2, 8] [µM]	Kd (PIKfyve) [µM]	CC50 at 48 h ([3]; 48 h, n = 3) [µM]	time to visible cytoplasmic vacuoles (Vero E6 cells)	rescue of cytopathic effect (SARS-CoV-2 [4])	stage of infection at which the drug acts (SARS-CoV-2 [7])	further results
Cc1ccc(NC(=O)c2cccc(C(F)(F)F)c2)cc1Nc1nc(-c2ccncc2)c2[nH]ccc2n1 [cmpd 24]	> 10	could not induce visible vacuoles	STG entered the cytoplasm	12.3	> 30	51.7	–	–	–	–
CCN(CC)CCCC(C)Nc1ccnc2cc(Cl)ccc12 (stereo not drawn) [Chloroquine]	–	–	–	0.549	–	54.8	–	–	–	EC50 ([2]; Vero E6 cells): ~0.5 µM
CC(C)(C)[C@H](NC(=O)C(F)(F)F)C(=O)N1C[C@H]2[C@@H]([C@H]1C(=O)N[C@H](C#N)C[C@@H]1CCNC1=O)C2(C)C [PF-07321332]	–	–	–	–	–	–	–	–	–	EC50 ([2]; Vero E6 cells, read-out: EC50): 0.487 µM
Cc1cccc(/C=N/Nc2cc(N3CCOCC3)nc(OCCc3ccccn3)n2)c1 [Apilimod]	> 10	induced cytoplasmic vacuoles	almost completely trapped on the enlarged cytoplasmic vacuoles	< 0.0069	–	41.8	less than 20 min	significantly rescued the cytopathic effects	–	bioavailability [5]: poor bioavailability; plasma concentration [5]: unexpected low plasma concentration
COc1ccc(C(=O)Nc2cccc(C(F)(F)F)c2)cc1Nc1nc(-c2cccnc2)c2[nH]ccc2n1 [XMU-MP-7]	> 10	dramatically induced cytoplasmic vacuoles	almost completely trapped on the enlarged cytoplasmic vacuoles	0.0093	0.0064	–	less than 20 min	significantly rescued the cytopathic effects	potent antiviral roles at both entry and post-entry stages	maturation of active cathepsin B (cathepsin B): impaired the maturation of active cathepsin B; AUC(0-inf) ([6]; IV, 2 mg/kg): 4250 ng·h/mL; AUC(0-t) ([6]; IV, 2 mg/kg): 4250 ng·h/mL; C0 ([6]; IV, 2 mg/kg): 14000 ng/mL; Tmax ([6]; IV, 2 mg/kg): 0.08 h; Vd ([6]; IV, 2 mg/kg): 0.2 L/kg; clearance ([6]; IV, 2 mg/kg): 7.88 mL/min/kg; half-life ([6]; IV, 2 mg/kg): 0.608 h; MRT inf ([6]; IV, 2 mg/kg): 0.429 h; AUC(0-inf) ([6]; PO, 10 mg/kg): 2210 ng·h/mL; AUC(0-t) ([6]; PO, 10 mg/kg): 2200 ng·h/mL; Cmax ([6]; PO, 10 mg/kg): 429 ng/mL; Tmax ([6]; PO, 10 mg/kg): 2.33 h; half-life ([6]; PO, 10 mg/kg): 3.06 h; bioavailability ([6]; PO, 10 mg/kg, read-out: F (oral bioavailability)): 10.4%; MRT inf ([6]; PO, 10 mg/kg): 3.81 h; CC50 at 48 h [3]: > 150 µM
CCC(CC)COC(=O)[C@H](C)N[P@](=O)(OC[C@H]1O[C@@](C#N)(c2ccc3c(N)ncnn23)[C@H](O)[C@@H]1O)Oc1ccccc1 [Remdesivir]	–	–	STG entered the cytoplasm	1.64	–	> 150	–	–	only exerted an inhibitory effect at post-entry stage	–
